Key:
[1] = Metabolic stability in liver microsomes; assay type: in vitro ADME; details: human liver microsomes 0.5 mg/mL, 1 μM compound, NADPH 1 mM; read-out: half-life period/(T1/2, min)
Procedure: The test compound was co-incubated with human liver microsomes, and coenzyme NADPH was added to initiate the reaction. At 0, 5, 15, 30 and 60 minutes, 20 μL of incubation solution was taken out and transferred to 200 μL of acetonitrile containing internal standard to stop the reaction. After protein precipitation, centrifugation was performed at 3,700 rpm for 10 minutes and the supernatant was taken. The supernatant was diluted 1:1 with water and analyzed by LC-MS/MS method. According to the elimination half-life of the test compound in the incubation system, the in vitro intrinsic clearance rate was calculated. Midazolam was used as the internal reference compound and incubated for two aliquots in parallel.
The ratio of peak area of the analyte/internal standard (Aanalyte/AIS) was obtained by the instrument. The remaining percentage (% Control) was calculated from the ratio of Aanalyte/AIS in the non-zero time point sample to the zero time point sample. Ln (% Control) versus incubation time was plotted and a linear fit was performed. The clearance constant (k, min^−1), the clearance half-life (T1/2, min) and the in vitro intrinsic clearance rate (CLint, mL·min^−1·mg^−1 proteins) of the test compound were calculated by the following equations.
Cprotein(mg·mL^−1) refers to the concentration of microsomal protein in the incubation system.

recombinant human PI3Kα = recombinant human PI3Kα (Homo sapiens (Human), UniProt P42336); assay: Inhibitory activity on PI3K kinase (ADP-Glo Kinase Assay)
Excerpt: The following method is used to determine the degree of inhibition of recombinant human PI3Kα, PI3Kβ, PI3Kγ and PI3Kδ kinase activity by the compounds of the present invention under in vitro conditions. Promega's ADP-Glo Kinase Assay Kit (Cat. No. V9102) was used in this method. The above kit was a luminescence kinase detection kit, which was used to detect the ADP content produced by the kinase reaction. The ADP content was positively correlated with the kinase activity. By measuring the ADP content, the inhibition of the compound on the activity of PI3Kα, PI3Kβ, PI3Kγ and PI3Kδ kinases was reflected. […] Recombinant human PI3Kα, PI3Kγ, and PI3Kδ were purchased from Invitrogen, and PI3Kβ was purchased from Promega (category numbers were PI3Kα: PV4788; PI3Kβ: V1751; PI3Kγ: PV4786 and PI3Kδ: PV6451 separately).

[2] = test system: CT26 mouse colon cancer cell subcutaneously transplanted tumor; assay: Growth inhibition of CT26 mouse colon cancer subcutaneously transplanted tumor model, alone and combined with PD-L1 monoclonal antibody; assay type: in vivo, BALB/c mice; details: 21st day after administration, Example 2 60 mg/kg gavage once a day, Anti-PD-L1 200 μg each i.p. once every 3 days, 4 times; for IR(%), tumor inhibition percentage: by tumor weight
Procedure: The anti-tumor effect of the combination of the compound of Example 2 and PD-L1 monoclonal antibody in CT26 mouse colon cancer cell subcutaneously transplanted tumor model was evaluated.
An appropriate amount of the compound of Example 2 was weighed into a centrifuge tube, and 5% NMP 95% PEG400 was added. The mixture was vortexed to a fully soluble solution with a concentration of 6 mg/mL, which was prepared before immediate use.
Recombinant anti-PD-L1 whole mouse monoclonal antibody (InVivoMAb anti-mouse PD-L1 (B7-H1), purchased from Bioxcell, Clone 10F.9G2, catalog number: BE0101, batch number: 720619F1) was diluted with PBS so that the concentration was 1 mg/mL, which was prepared before immediate use.
BALB/c mice, female, 7-8 weeks (the age of mice at the time of tumor cell inoculation), weight of 18.4-19.1 g, 9 mice in each group, purchased from Zhejiang Weitong Lihua Laboratory Animal Technology Co., Ltd., license number: SOCK (Zhejiang) 2019-0001.
CT26 mouse colon cancer cells were cultured in RPMI-1640 culture medium containing 10% fetal bovine serum, 100 U/mL penicillin and 100 μg/mL streptomycin. CT26 cells in the exponential growth phase were collected and resuspended in PBS to a suitable concentration for subcutaneous tumor inoculation in mice.
Female BALB/c mice were subcutaneously inoculated with 2.5×10^5 CT26 cells on the back. When the average tumor volume was about 127 mm^3, they were randomly grouped according to the size of the tumor. They were divided into 4 groups with each group of 9 animals, and the day of grouping was defined as day 0.
After tumor inoculation, routine monitoring included the effects of tumor growth and treatment on the normal behavior of animals. The specific content included the activity of the experimental animal, food and water consumption, weight gain or loss, abnormal conditions of eyes, coat and others. The tumor volume was weighed and measured twice a week. The administration period was 21 days. On the 21st day, the mice were weighed and the tumor volume was measured. The next day after the tumor volume was measured, the mice were sacrificed and tumor masses were taken and weighed. The tumor volume (TV), relative tumor volume (RTV), relative tumor growth rate (T/C), tumor inhibition percentage (IR) and relative tumor inhibition rate (TGI) were calculated, and statistical testing was performed. The calculation formulas were as follows:
(1) TV=1/2×a×b^2, where a and b represent the length and width of the tumor respectively;
(2) RTV=Vt/V0, where V0 is the tumor volume measured during administration in grouping (i.e. d0), and Vt is the tumor volume during each measurement;

Sequence of recombinant human PI3Kα (P42336 whole entry): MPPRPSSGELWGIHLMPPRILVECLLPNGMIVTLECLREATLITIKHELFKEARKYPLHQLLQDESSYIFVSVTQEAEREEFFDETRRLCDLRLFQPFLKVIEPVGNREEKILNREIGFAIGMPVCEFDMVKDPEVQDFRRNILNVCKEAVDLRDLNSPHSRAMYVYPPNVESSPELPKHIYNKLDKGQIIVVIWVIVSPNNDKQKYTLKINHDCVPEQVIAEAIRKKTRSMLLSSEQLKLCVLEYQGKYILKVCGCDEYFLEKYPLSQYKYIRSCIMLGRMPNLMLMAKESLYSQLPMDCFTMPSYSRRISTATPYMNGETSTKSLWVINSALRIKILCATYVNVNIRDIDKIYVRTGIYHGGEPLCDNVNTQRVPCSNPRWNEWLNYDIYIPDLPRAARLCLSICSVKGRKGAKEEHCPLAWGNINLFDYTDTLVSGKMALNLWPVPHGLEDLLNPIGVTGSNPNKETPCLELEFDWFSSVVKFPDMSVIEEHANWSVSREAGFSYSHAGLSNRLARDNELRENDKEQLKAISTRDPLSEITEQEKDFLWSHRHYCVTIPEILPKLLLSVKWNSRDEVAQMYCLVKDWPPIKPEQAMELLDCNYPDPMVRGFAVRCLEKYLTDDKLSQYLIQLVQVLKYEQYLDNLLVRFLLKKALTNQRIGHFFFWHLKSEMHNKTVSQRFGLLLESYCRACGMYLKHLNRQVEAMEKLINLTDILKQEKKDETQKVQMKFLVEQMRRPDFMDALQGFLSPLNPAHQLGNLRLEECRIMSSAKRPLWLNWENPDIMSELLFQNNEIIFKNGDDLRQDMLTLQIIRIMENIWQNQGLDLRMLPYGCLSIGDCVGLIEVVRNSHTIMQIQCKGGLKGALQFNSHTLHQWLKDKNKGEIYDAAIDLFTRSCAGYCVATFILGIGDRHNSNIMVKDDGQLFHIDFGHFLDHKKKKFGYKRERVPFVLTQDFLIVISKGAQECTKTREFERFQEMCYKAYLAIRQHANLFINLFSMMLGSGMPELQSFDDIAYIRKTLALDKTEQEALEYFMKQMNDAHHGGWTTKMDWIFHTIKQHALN
Sequence of recombinant human PI3Kα (P27986 whole entry partner): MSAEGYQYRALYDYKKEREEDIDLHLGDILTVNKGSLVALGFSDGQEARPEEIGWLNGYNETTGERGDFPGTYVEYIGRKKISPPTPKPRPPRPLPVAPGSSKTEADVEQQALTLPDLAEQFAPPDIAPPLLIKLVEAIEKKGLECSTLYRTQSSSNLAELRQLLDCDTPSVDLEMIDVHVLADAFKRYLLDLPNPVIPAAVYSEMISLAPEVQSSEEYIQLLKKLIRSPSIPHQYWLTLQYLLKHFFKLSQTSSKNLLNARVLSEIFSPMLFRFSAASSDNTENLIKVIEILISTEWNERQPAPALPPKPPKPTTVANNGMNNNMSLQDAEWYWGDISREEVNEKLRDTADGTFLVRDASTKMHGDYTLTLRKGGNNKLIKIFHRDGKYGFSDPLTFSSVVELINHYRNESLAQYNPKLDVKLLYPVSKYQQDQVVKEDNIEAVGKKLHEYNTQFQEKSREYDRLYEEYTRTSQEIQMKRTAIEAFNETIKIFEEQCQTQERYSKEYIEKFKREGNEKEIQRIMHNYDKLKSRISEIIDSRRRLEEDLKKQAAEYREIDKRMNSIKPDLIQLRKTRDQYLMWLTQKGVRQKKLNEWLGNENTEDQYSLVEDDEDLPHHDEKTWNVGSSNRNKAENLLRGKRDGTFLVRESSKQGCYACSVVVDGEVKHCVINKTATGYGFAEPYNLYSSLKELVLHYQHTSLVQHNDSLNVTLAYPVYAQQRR

- half-life at 1 μM [1]: 233 min
- IC50 (recombinant human PI3Kα): 215 nM
SMILES: C[C@H](NC(=O)c1c(N)nn2cccnc12)c1nc2cccc(C#Cc3cnn(C4CC4)c3)c2c(=O)n1-c1ccccc1 [Example 2, (S)-2-amino-N-(1-(5-((1-cyclopropyl-1H-pyrazol-4-yl)ethynyl)-4-oxo-3-phenyl-3,4-dihydroquinazolin-2-yl)ethyl)pyrazolo[1,5-a]pyrimidine-3-carboxamide]
- RTV (x ± S), relative tumor volume [2]: 5.47 ± 1.05
- TGI (%), relative tumor inhibition rate [2]: 51.2%
- Tumor weight (g) (x ± S) [2]: 0.5942 ± 0.1730 g
- TV (x ± S), tumor volume ([2]; in mm³ (unit assumed)): 723.47 ± 159.50
- IR(%), tumor inhibition percentage ([2]; listed as Compound of Example 2): 52.1%
- IR(%), tumor inhibition percentage ([2]; listed as compound of Example 2): 52.1%

Source: US12447151B2, “Alkyne derivative, preparation method for same, and uses thereof” (ZHEJIANG HISUN PHARMACEUTICAL CO., LTD., priority 2019, dated 2025)
